Test results: paper PMC4853780, “HpDTC1, a Stress-Inducible Bifunctional Diterpene Cyclase Involved in Momilactone Biosynthesis, Functions in Chemical Defence in the Moss Hypnum plumaeforme” (Scientific Reports, 2016)

Experiments:
Format in all cases: biochemical
OsCPS4 = target: T1, OsCPS4 (Oryza sativa, UniProt Q0JF02); test: GC-MS of product after dephosphorylation; details: product syn-CDP, detected as syn-copalol after calf intestinal alkaline phosphatase
T1 construct: gene CPS4; enzyme preparation not described in main text

HpDTC1 [1] = target: T2, HpDTC1 (Calohypnum plumiforme, UniProt A0A173M1U8); test: GC-MS of reaction product; details: product syn-pimara-7,15-diene
T2 construct: His6-tag, pCold I, E. coli M-15

HpDTC1 [2] = target: T3, HpDTC1 (Calohypnum plumiforme, UniProt A0A173M1U8, D394G/D395G); test: GC-MS of product, co-incubation with OsCPS4; details: syn-CDP formed in situ from GGDP by OsCPS4; type A activity; product syn-pimara-7,15-diene
T3 construct: His6-tag, pCold I, E. coli M-15
T3 sequence (A0A173M1U8 entry or part of it D394G/D395G): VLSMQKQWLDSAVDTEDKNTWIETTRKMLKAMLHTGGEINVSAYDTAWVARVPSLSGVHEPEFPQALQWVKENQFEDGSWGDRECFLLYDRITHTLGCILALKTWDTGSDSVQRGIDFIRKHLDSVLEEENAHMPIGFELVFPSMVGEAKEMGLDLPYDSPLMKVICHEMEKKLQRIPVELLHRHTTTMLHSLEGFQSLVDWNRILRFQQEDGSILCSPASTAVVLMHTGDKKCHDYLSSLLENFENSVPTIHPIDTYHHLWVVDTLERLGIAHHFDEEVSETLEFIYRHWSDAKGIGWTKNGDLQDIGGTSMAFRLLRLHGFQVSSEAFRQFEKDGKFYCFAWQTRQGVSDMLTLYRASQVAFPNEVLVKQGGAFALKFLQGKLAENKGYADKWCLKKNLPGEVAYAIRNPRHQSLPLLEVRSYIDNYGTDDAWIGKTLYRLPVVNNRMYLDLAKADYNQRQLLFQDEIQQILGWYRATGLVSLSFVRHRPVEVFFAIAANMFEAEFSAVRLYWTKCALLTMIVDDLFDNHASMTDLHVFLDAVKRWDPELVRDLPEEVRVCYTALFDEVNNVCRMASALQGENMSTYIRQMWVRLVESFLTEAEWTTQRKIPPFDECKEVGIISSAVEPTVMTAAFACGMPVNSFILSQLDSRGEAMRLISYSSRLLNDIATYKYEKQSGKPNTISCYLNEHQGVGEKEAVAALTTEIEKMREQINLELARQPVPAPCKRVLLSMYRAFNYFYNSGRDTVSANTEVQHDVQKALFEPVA

T2 sequence (A0A173M1U8 entry or part of it): as the sequence (A0A173M1U8 entry or part of it D394G/D395G) above, with G309D, G310D counted along it
T1 sequence (Q0JF02 48-767): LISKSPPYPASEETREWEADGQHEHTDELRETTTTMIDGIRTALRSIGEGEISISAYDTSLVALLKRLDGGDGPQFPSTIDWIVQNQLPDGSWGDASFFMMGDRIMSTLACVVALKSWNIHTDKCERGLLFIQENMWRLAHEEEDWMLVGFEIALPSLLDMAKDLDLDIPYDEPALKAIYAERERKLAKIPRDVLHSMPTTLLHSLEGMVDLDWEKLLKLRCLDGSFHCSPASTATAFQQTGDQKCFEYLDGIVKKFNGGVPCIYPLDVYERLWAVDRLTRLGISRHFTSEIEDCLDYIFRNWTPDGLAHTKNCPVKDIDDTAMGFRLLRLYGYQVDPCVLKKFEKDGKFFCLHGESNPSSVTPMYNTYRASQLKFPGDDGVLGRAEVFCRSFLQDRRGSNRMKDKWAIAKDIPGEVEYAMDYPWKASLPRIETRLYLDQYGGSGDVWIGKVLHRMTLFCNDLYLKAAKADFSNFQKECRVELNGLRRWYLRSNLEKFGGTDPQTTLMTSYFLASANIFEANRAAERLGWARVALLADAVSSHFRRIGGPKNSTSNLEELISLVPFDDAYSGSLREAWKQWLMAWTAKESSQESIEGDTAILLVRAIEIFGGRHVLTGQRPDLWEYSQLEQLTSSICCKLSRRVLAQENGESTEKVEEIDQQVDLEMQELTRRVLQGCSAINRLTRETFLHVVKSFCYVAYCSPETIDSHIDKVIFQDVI

Structure (SMILES)	GC-MS of product after dephosphorylation (OsCPS4)	GC-MS of reaction product (HpDTC1 [1])	GC-MS of product, co-incubation with OsCPS4 (HpDTC1 [2])
CC(C)=CCC/C(C)=C/CC/C(C)=C/CC/C(C)=C/COP(=O)(O)OP(=O)(O)O [GGDP]	syn-copalol derived from syn-CDP, product of OsCPS4	used for the enzyme assay using GGDP as a substrate	–
C=C1CC[C@H]2C(C)(C)CCC[C@]2(C)[C@@H]1CC/C(C)=C/COP(=O)(O)OP(=O)(O)O [syn-CDP]	–	–	Co-incubation with OsCPS4 and the type B mutant of HpDTC1 (DIGG) complemented the impaired
